Measurements: PubChem BioAssay AID1549 (Sanford-Burnham Center for Chemical Genomics, 2009)
The source made the active and inactive calls. How the calls were made is not given here.

Target: Influenza A virus M2 proton channel (A/TW/4845/1999 H1N1)
Assay: NMR binding screen, influenza A virus M2 proton channel, Kd (AID 1549)
Conditions: M2 protein

Row | SMILES | Kd
1 | CC(=O)/C=C\[C@@H]1[C@@]2(C)CCCC(C)(C)C2CC[C@@]1(C)O (stereo partly drawn) | > 4 mM (inactive)
2 | O=C(NC1CCS(=O)(=O)C1)C1CCCCC1 (stereo not drawn) | > 4 mM (inactive)
3 | Cn1[nH]c2nc3[nH]n(C)c(=O)c3c(-c3ccccc3)c2c1=O | > 4 mM (inactive)
4 | CN(C)S(=O)(=O)c1ccc(NC=O)cc1 | > 4 mM (inactive)
5 | NC(=O)Cn1cnc2c(cnn2-c2ccccc2)c1=O | > 4 mM (inactive)
6 | Cc1ccc(CO)o1 | > 4 mM (inactive)
7 | O=C(O)c1onc2ccccc12 | > 4 mM (inactive)
8 | CNC(=O)C1CC(=O)N(c2ccc(O)cc2)C1 (stereo not drawn) | > 4 mM (inactive)
9 | O=c1c2ccccc2nc(-c2ccco2)n1-c1nccs1 | > 4 mM (inactive)
10 | COc1cccc(C(=O)N2CCOCC2)c1 | > 4 mM (inactive)
11 | O=C(O)C1COc2ccccc2O1 (stereo not drawn) | > 4 mM (inactive)
12 | NC(=O)COc1cccc2cccnc12 | > 4 mM (inactive)
13 | COc1ccc(-c2nc(N)n(C(C)=O)n2)cc1 | > 4 mM (inactive)
14 | O=C(O)c1cccc2c1OCCCO2 | > 4 mM (inactive)
15 | Cc1ccc2c(c1)CC[C@H]1CC(=O)CC[C@]21C | > 4 mM (inactive)
16 | C(=N\c1ncn[nH]1)/c1cccs1 | > 4 mM (inactive)
17 | CCc1noc(C)c1C(=O)N1CCCC1 | > 4 mM (inactive)
18 | CN1CCN(C(=O)c2cc(-c3ccccc3)on2)CC1 | > 4 mM (inactive)
19 | Cc1cc(C)n2nc(-c3cccnc3)nc2n1 | > 4 mM (inactive)
20 | O=C1CCCc2c(O)cccc21 | > 4 mM (inactive)
21 | COc1ccc(/C=C/c2cc(O)cc(O)c2)cc1 | > 4 mM (inactive)
22 | Cc1c(C(=O)NCc2ccccn2)oc2ccccc12 | > 4 mM (inactive)
23 | CN(C)Cc1c(N)cccc1O | > 4 mM (inactive)
24 | O=C(Oc1ccc(-c2nnco2)cc1)N1CCCCC1 | > 4 mM (inactive)
25 | Cc1cn(C(=O)CN2C(=O)c3ccccc3C2=O)c(C)n1 | > 4 mM (inactive)

Row | SMILES | Kd
26 | CCOc1nc(C)ccc1-c1noc(-c2ccncc2)n1 | > 4 mM (inactive)
27 | C[n+]1ccn(C/C(N)=N/O)c1 | > 4 mM (inactive)
28 | O=C1CN2C(=N1)N(Cc1ccccc1)c1ccccc12 | > 4 mM (inactive)
29 | O=C1CS/C(=N/N=C2CCCC2)N1 | > 4 mM (inactive)
30 | O=S1(=O)NC(=NCc2ccccc2)c2ccccc21 | > 4 mM (inactive)
31 | CN1CN(Cc2ccccc2)CN/C1=N/[N+](=O)[O-] | > 4 mM (inactive)
32 | CN=C(C)c1c(O)n(C)c(=S)n(C)c1=O | > 4 mM (inactive)
33 | CNC(=O)c1ccccc1-c1ccccc1 | > 4 mM (inactive)
34 | O=C(O)CCC1=C2c3ccccc3CCN2C(=O)CC1 | > 4 mM (inactive)
35 | Nc1cc(-c2ccco2)[nH]n1 | > 4 mM (inactive)
36 | CC(=O)Oc1ccc(/C=C/c2cc(OC(C)=O)cc(OC(C)=O)c2)cc1 | > 4 mM (inactive)
37 | Nc1cccc(-n2cnnn2)c1 | > 4 mM (inactive)
38 | COc1ccc(C(=O)/C=C2\NC(=S)NC2=O)cc1 | > 4 mM (inactive)
39 | O=c1c(O)c(-c2ccccc2)oc2cc(O)ccc12 | > 4 mM (inactive)
40 | NCc1oc(-c2ccccc2)cc1C(=O)O | > 4 mM (inactive)
41 | S=C(NCc1cccnc1)NC1CC1 | > 4 mM (inactive)
42 | CCCc1cc(=O)[nH]c2nnc(SCC(C)=O)n12 | > 4 mM (inactive)
43 | O=C(O)c1ccnc2ccccc12 | > 4 mM (inactive)
44 | CC(C)n1c(Nn2cnnc2)nc2ccccc21 | > 4 mM (inactive)
45 | COc1ccc([C@@H]2CC(=O)c3c(O)cc(O)cc3O2)cc1O | > 4 mM (inactive)
46 | CCNC(=S)N1CCCC(C(N)=O)C1 (stereo not drawn) | > 4 mM (inactive)
47 | OCn1nnn(-c2ccccc2)c1=S | > 4 mM (inactive)
48 | COC(=O)c1scc(C)c1N | > 4 mM (inactive)
49 | O=C(Nn1cnnc1)c1ccccc1Cl | > 4 mM (inactive)
50 | COc1c2occc2c(OC)c2c(=O)cc(C)oc12 | > 4 mM (inactive)

Row | SMILES | Kd
51 | O=C1CSC(=Nc2ccccc2[N+](=O)[O-])N1 | > 4 mM (inactive)
52 | NCc1ccccc1N1CCCCC1 | > 4 mM (inactive)
53 | NCCN=C1NS(=O)(=O)c2ccccc21 | > 4 mM (inactive)
54 | NC(CCC(=O)Nc1ccc([N+](=O)[O-])cc1)C(=O)O (stereo not drawn) | > 4 mM (inactive)
55 | c1csc(-c2nn[nH]n2)c1 | > 4 mM (inactive)
56 | Cn1c(SCC(=O)NCCO)nc2ccccc2c1=O | > 4 mM (inactive)
57 | C[n+]1ccc(C(=O)[O-])cc1 | > 4 mM (inactive)
58 | OC[C@@H]1CCCN2CCCC[C@H]12 | > 4 mM (inactive)
59 | O=C1NCC(=O)N2CCc3ccccc3C12 (stereo not drawn) | > 4 mM (inactive)
60 | COc1cnn(Cc2ccccc2)c(=O)c1Cl | > 4 mM (inactive)
61 | O=C(NCCO)c1ccccc1I | > 4 mM (inactive)
62 | Cc1ccc(O)c(NC(=O)c2ccco2)c1 | > 4 mM (inactive)
63 | COc1ccccc1-c1nc(-c2ccc(C)nc2OC)no1 | > 4 mM (inactive)
64 | CC1(C)Oc2ccc3ccc(=O)oc3c2CC1O (stereo not drawn) | > 4 mM (inactive)
65 | O=C(O)Cn1nnnc1-c1ccc(F)cc1 | > 4 mM (inactive)
66 | O=C(CS(=O)(=O)c1ccccc1)N1CCCCCC1 | > 4 mM (inactive)
67 | Nc1ccc2[nH]ccc2c1 | > 4 mM (inactive)
68 | O=C(O)c1snnc1-c1ccccc1 | > 4 mM (inactive)
69 | C=CC(C)(O)CC/C=C(\C)CCC=C(C)C (stereo not drawn) | > 4 mM (inactive)
70 | COc1cc2ccc(=O)oc2c(OC)c1OC | > 4 mM (inactive)
71 | OC[C@H]1O[C@@H](n2cnc3c(NCc4ccco4)ncnc32)[C@H](O)[C@@H]1O | > 4 mM (inactive)
72 | O=C(c1nc2ccccc2s1)N1CCSCC1 | > 4 mM (inactive)
73 | Cc1cccc(C)c1N1C(=O)CCC1=O | > 4 mM (inactive)
74 | O=C(O)c1scc2c1CCCC2 | > 4 mM (inactive)
75 | CCOc1ccc2nc(NS(C)(=O)=O)sc2c1 | > 4 mM (inactive)

Row | SMILES | Kd
76 | CC(=O)c1cccc(NC(=O)C=C(C)C)c1 | > 4 mM (inactive)
77 | CC(=O)c1c(O)n(C)c(=S)n(C)c1=O | > 4 mM (inactive)
78 | Cc1nn(C)c2sc(CO)cc12 | > 4 mM (inactive)
79 | Cc1ccc(C)c(C(=O)n2cnnc2N)c1 | > 4 mM (inactive)
80 | CC(=O)Nc1nc(-c2cccs2)cs1 | > 4 mM (inactive)
81 | O=C(Nc1nnc(-c2ccco2)o1)c1ccc([N+](=O)[O-])o1 | > 4 mM (inactive)
82 | CCc1c(C)n([O-])c2c([n+]1=O)CCC2 | > 4 mM (inactive)
83 | Cc1c(C(=O)O)cnn1-c1ccccc1 | > 4 mM (inactive)
84 | O=C(O)C1Cc2ccccc2O1 (stereo not drawn) | > 4 mM (inactive)
85 | O=C(O)c1ncoc1-c1ccccc1 | > 4 mM (inactive)
86 | Cn1cnc2c(=O)[nH]cc([N+](=O)[O-])c21 | > 4 mM (inactive)
87 | CC(=O)O[C@@H]1CC2C(C)(C)[C@H](O)C[C@H](O)[C@]2(C)C2CC[C@@]3(C)C(=CC(=O)O[C@H]3c3ccoc3)[C@@]21C (stereo partly drawn) | > 4 mM (inactive)
88 | CC(C)(C)c1ccc(SCC(N)=O)cc1 | > 4 mM (inactive)
89 | O=C1CC(c2c[nH]c3ccccc23)C(=O)N1 (stereo not drawn) | > 4 mM (inactive)
90 | CNC(=O)C(=O)Nc1ccc(F)cc1 | > 4 mM (inactive)
91 | S=C(NCC1CCCO1)NC1CC1 (stereo not drawn) | > 4 mM (inactive)
92 | CCCn1cnn2c(=O)cc(C)nc12 | > 4 mM (inactive)
93 | Nc1nc2ncc(CNc3ccc(C(=O)N[C@@H](CCC(=O)O)C(=O)O)cc3)nc2c(=O)[nH]1 | > 4 mM (inactive)
94 | COc1cc(O)c(C)c(O)c1 | > 4 mM (inactive)
95 | COc1cc(-c2nnc(NC(C)=O)o2)cc(OC)c1OC | > 4 mM (inactive)
96 | COc1cc(-c2csc(C)n2)ccc1O | > 4 mM (inactive)
97 | CC(=O)Oc1cc(OC(C)=O)c2c(c1)O[C@H](c1ccc(OC(C)=O)c(OC(C)=O)c1)[C@H](OC(C)=O)C2 | > 4 mM (inactive)
98 | CC(=O)Nc1ccc(NC(C)=O)cc1 | > 4 mM (inactive)
99 | CN(C)Cc1nc2c([nH]1)c(=O)[nH]c(=O)n2C | > 4 mM (inactive)
100 | COc1ccc([C@H]2Oc3c(I)c(OC)cc(OC)c3C[C@@H]2O)cc1OC | > 4 mM (inactive)

Row | SMILES | Kd
101 | O=C(O)/C=C/C=C/c1ccccc1 | > 4 mM (inactive)
102 | CN(C)C(=O)C12CCC(C)(C(=O)O1)C2(C)C (stereo not drawn) | > 4 mM (inactive)
103 | CC(=O)Nc1cccc(NC(=O)c2cccnc2)c1 | > 4 mM (inactive)
104 | Cc1cc(C(=O)Nc2sc3c(c2C#N)CCC3)no1 | > 4 mM (inactive)
105 | NC(=O)COc1ccccc1O | > 4 mM (inactive)
106 | OCc1ccc(-n2cncn2)cc1 | > 4 mM (inactive)
107 | COc1cc(/C=C/C(=O)/C=C(O)/C=C/c2ccc(O)c(OC)c2)ccc1O | > 4 mM (inactive)
108 | O=C(O)CC1NCCNC1=O (stereo not drawn) | > 4 mM (inactive)
109 | Cc1nc(CC(=O)O)c(-c2ccccc2)s1 | > 4 mM (inactive)
110 | CC[C@H]1CN2CCc3cc(OC)c(OC)cc3C2C[C@@H]1CC1NCCc2cc(OC)c(OC)cc21 (stereo partly drawn) | > 4 mM (inactive)
111 | COc1cc(C/C=C/c2ccccc2)c(OC)cc1O | > 4 mM (inactive)
112 | CC1CCC(N2CCN(c3ncccn3)CC2)CC1 (stereo not drawn) | > 4 mM (inactive)
113 | COc1ccc(-c2c(OC)c3c(OC)c4c(cc3oc2=O)OC(C)(C)C=C4)cc1 | > 4 mM (inactive)
114 | CC(=O)C1=C(O)C(=O)NC1c1ccccc1 (stereo not drawn) | > 4 mM (inactive)
115 | CCc1cc(=O)[nH]c(SCC(=O)NCCOC)n1 | > 4 mM (inactive)
116 | CCC(C)C(=O)O[C@H]1[C@H](O)C2C(CN3CC(C)CCC3[C@@]2(C)O)C2C[C@]34O[C@]5(O)C(OC(=O)C(C)(O)CC)CC[C@@]3(C)C5C(OC(C)=O)[C@@H](OC(C)=O)C4[C@@]21O (stereo partly drawn) | > 4 mM (inactive)
117 | O=C(O)c1ccc(N2CCOCC2)nc1 | > 4 mM (inactive)
118 | NC(=O)NC1NC(=O)NC1=O (stereo not drawn) | > 4 mM (inactive)
119 | O=S(=O)(Nc1cccc2cn[nH]c12)c1ccc(F)cc1 | > 4 mM (inactive)
120 | CNCc1ccco1 | > 4 mM (inactive)
121 | O=c1[nH]cnc2c1nnn2Cc1ccccc1 | > 4 mM (inactive)
122 | Cc1ccc(N2C(=O)CCC2=O)cc1 | > 4 mM (inactive)
123 | CCOC(=O)C1CCN(Cc2ccccc2)CC1 | > 4 mM (inactive)
